Data: US20160084841A1, “Method for Predicting Clinical Effect of Immunotherapy” (INTERNATIONAL INSTITUTE OF CANCER IMMUNOLOGY, INC., priority 2013, published 2016)

Key:
[1] = test system: anti-WT1235 peptide IgG antibody; test: ELISA using variant WT1 antigen peptide as immobilized antigen to assay anti-WT1235 peptide IgG antibody; type: binding, human; details: serum of thymic carcinoma patient given WT1235 peptide; increase in titer detected; FIG. 19
Experimental: WK235-243 (SEQ ID NO: 62) and WT237-243 (SEQ ID NO: 63) were synthesized by GL Biochem (Shanghai) Corporation Ltd. WT1-frg2 (SEQ ID NO: 61) was prepared in the same way as in the aforementioned WT1-frg3 (SEQ ID NO: 57).
The measurement of the antibody titer using WT1-frg2 (SEQ ID NO: 61) was performed in the same way as in the aforementioned WT1-frg3 (SEQ ID NO: 57). The measurement of the antibody titer using WK235-243 (SEQ ID NO: 62) or WT237-243 (SEQ ID NO: 63) was performed in the same way as in the aforementioned WT332-347 (SEQ ID NO: 58), etc.

[2] = test system: malignant thymic carcinoma patient; test: Anti-WT1332 / anti-WT1235 IgG antibody titer (ELISA) in serum of a patient given WT1235 peptide vaccine; type: in vivo, human
From the text: (§1) From one malignant glioblastoma patient given WT1332 peptide vaccine (SEQ ID NO: 6), a serum sample was obtained before the start of administration of the vaccine, at 4 weeks after the start of administration, and at 1 year and 2 months after the start of administration. From one malignant thymic carcinoma patient given WT1235 peptide vaccine (WT1-CTL peptide (modified mp235-243) (SEQ ID NO: 3)) alone, a serum sample was obtained as a negative control in the same way as above. Each serum sample was stored at −20° C. until assay.
The GST-WT1 frag1 protein solution (10 ng/μL) was added at 100 μL/well to a 96-well plate for ELISA. The plate was left overnight at 37° C. to immobilize the antigen thereon. After washing with 0.05% TBST, blocking was performed by shaking at room temperature for 2 hours using a blocking buffer (1% gelatin/0.05% TBST). Then, the serum diluted 100-fold with 0.05% TBST was added thereto at 100 μL/well and reacted overnight at 4° C. The plate was reacted with a peroxidase-labeled goat anti-human IgG antibody (Santa Cruz Biotechnology, Inc.) as a secondary antibody at room temperature for 2 hours. Then, a color was developed using a TMB kit (KPL, Kirkegaard & Perry Laboratories, Inc.). The reaction was terminated with 1 N HCl, and the absorbance at 450 nm was then measured using a microplate reader (CORONA […] MTP-32). […]

[3] = test system: recurrent malignant glioblastoma (GBM) patients; test: Anti-WT1-235 peptide IgG antibody titer (ELISA) in serum of GBM patients given WT1235 peptide vaccine; type: in vivo, human; details: 2 months and 3 months after the start of administration compared with before, ELISA antigen WT1-235 peptide, FIG. 1
Experimental: 1-1 WT1 peptide immunotherapy was carried out in 72 GBM patients using WT1235 peptide (WT1-CTL peptide (modified mp235-243) (SEQ ID NO: 3)) as a WT1 peptide vaccine. […]
(§2) To a 96-well reaction plate supplied with Peptide Coating Kit (Takara Bio Inc.) having amino groups attached to the bottom surface of the wells, a solution (4 μg/mL) of the WT1-235 peptide dissolved in a reaction buffer supplied with Peptide Coating Kit was added at 50 μL/well. […] The reaction was terminated with 1 N HCl, and the absorbance at 450 nm was then measured using a microplate reader (CORONA […] MTP-310Lab).
The comparison between two groups was conducted using the Mann-Whitney test. […] The anti-WT1 antigen peptide antibody titer was measured using the serum negative for the anti-WT1 antigen peptide antibody (patient's serum before the start of WT1 peptide immunotherapy) and the average value plus twice the standard deviation=0.045. […]

[4] = test system: anti-WT1332 peptide IgG antibody; test: ELISA using variant WT1 antigen peptide as immobilized antigen to assay anti-WT1332 peptide IgG antibody; type: binding, human; details: serum diluted 100-fold; titer increased in WT1332-immunized patient, not in unimmunized patient; FIG. 18
Experimental: A vector expressing WT1-frg3 (SEQ ID NO: 57) as a GST-tagged protein was constructed using a pGEX-5X-3 vector (GE Healthcare Japan Corp.). The prepared vector was transferred to competent cells DH5α by heat shock. The vector-transferred E. coli was cultured. At the point in time when the OD600 value became 0.4 to 0.6, isopropyl-β-D-thiogalactoside (IPTG) was added at a final concentration of 1 mM to the medium to induce protein expression. The cells were further cultured for 3 hours. The bacterial cells were collected by centrifugation and then lysed in an SDS sample buffer (0.125 M Tris-HCl, 0.1 M DTT, 4% SDS, 10% sucrose, and bromophenol blue, pH 6.8). This lysate was fractionated on the basis of molecular weights by SDS-PAGE using a disc-type electrophoresis apparatus NA-1800 (Nihon Eido Corp.). A portion of each fraction thus collected by SDS-PAGE was stained with CBB, and a fraction containing WT1 was recovered. The purified protein was dissolved in an immobilizing buffer for ELISA (10 mM NaCO3, 30 mM NaHCO3, and 0.02% NaN3, pH 9.6) and used as an antigen for ELISA.
The GST-WT1 frag1 protein solution (10 ng/μL) was added at 100 μL/well to a 96-well plate for ELISA. The plate was left overnight at 37° C. to immobilize the antigen thereon. After washing with 0.05% TBST, blocking was performed by shaking at room temperature for 2 hours using a blocking buffer (1% gelatin/0.05% TBST). Then, the serum diluted 100-fold with 0.05% TBST was added thereto at 100 μL/well and reacted overnight at 4° C. […] The reaction was terminated with 1 N HCl, and the absorbance at 450 nm was then measured using a microplate reader (CORONA […] MTP-32).
as §2, with “groups (—NH2)” for “groups”, “WT1” for “WT1-235”

[5] = test system: malignant glioblastoma patient; test: Anti-WT1332 IgG antibody titer (ELISA) in serum of a patient given WT1332 peptide vaccine; type: in vivo, human; details: one patient immunized with WT1332 peptide, FIG. 18
From the text: as §1
[…] The plate was left overnight at 37° C. to immobilize the antigen thereon. After washing with 0.05% TBST, blocking was performed by shaking at room temperature for 2 hours using a blocking buffer (1% gelatin/0.05% TBST). […] The reaction was terminated with 1 N HCl, and the absorbance at 450 nm was then measured using a microplate reader (CORONA […] MTP-32).
as §2, with “groups (—NH2)” for “groups”, “WT1” for “WT1-235”

CMTWNQMNK [WK235-243]
ability as ELISA antigen to measure anti-WT1235 IgG antibody level in patient's serum [1]: could measure an anti-WT1235 IgG antibody level in patient's serum

CYTWNQMNL (Montanide ISA51 emulsion) [WT1235 peptide vaccine, emulsion with Montanide ISA51]
anti-WT1332 IgG antibody titer after immunization ([2]; negative control: one patient immunized with WT1235 peptide alone (unimmunized with WT1332 peptide), ELISA antigen WT1-frg3): not increased | anti-WT1235 IgG antibody titer ([2]; one thymic carcinoma patient, serum at 4 weeks and 7 months after start of administration, ELISA antigen WT1-frg2, FIG. 19): increase in anti-WT1235 IgG antibody titer was detected | anti-WT1-235 peptide IgG antibody titer after the start of administration [3]: significantly increased

KRYFKLS [WT332-338]
ability as ELISA antigen to measure anti-WT1332 IgG antibody level in patient's serum [4]: could measure an anti-WT1332 IgG antibody level in patient's serum

KRYFKLSHLQMHSRKH [WT332-347]
ability as ELISA antigen to measure anti-WT1332 IgG antibody level in patient's serum [4]: could measure an anti-WT1332 IgG antibody level in patient's serum

KRYFKLSHLQMHSRKH [WT1332 peptide]
anti-WT1332 IgG antibody titer after immunization ([5]; ELISA antigen WT1-frg3): increased | anti-WT1332 IgG antibody titer after immunization ([5]; ELISA antigen WT332-347, WT334-342 or WT332-338): increased

TWNQMNL [WT237-243]
ability as ELISA antigen to measure anti-WT1235 IgG antibody level in patient's serum [1]: could measure an anti-WT1235 IgG antibody level in patient's serum

YFKLSHLQM [WT334-342]
ability as ELISA antigen to measure anti-WT1332 IgG antibody level in patient's serum [4]: could measure an anti-WT1332 IgG antibody level in patient's serum
